Like-named read-outs stand apart in the source and are kept apart here.
Columns and labels:
[1] = set-up: method as in earlier work; conditions: dog; cited from earlier work
HBG mRNA = HBG mRNA (%) by QPCR in differentiating BM cells (CS1, CS2); assay type: cell-based, human
Experimental: CD34+ cells isolated from human bone marrow of healthy normal donors (Lonza, AllCells, or StemCell Technologies), referred to as BM cells throughout this work, were cultured using two distinct 2-phase culture systems. These systems have been described previously and are referred to as Culture System 1 (CS1) and Culture System 2 (CS2) throughout this work. CS1 expansion media is StemSpan SFEM (StemCell Technologies) supplemented with CC100 (StemCell Technologies), 100 U/mL penicillin and 100 μg/mL streptomycin. CC100 is a mix of Flt-3 ligand (FLT3LG), KIT ligand (KITLG), interleukin-3 (IL3), and interleukin-6 (IL6). CS1 differentiation media is StemSpan SFEM supplemented with 1 U/ml erythropoietin (EPO), 5 ng/mL IL3, 20 ng/mL KITLG, 2 μM dexamethasone, 1 μM beta-estradiol, 100 U/mL penicillin and 100 μg/mL streptomycin. CS2 expansion media is StemSpan SFEM supplemented with 1% glutamine, 40 μg/mL lipids (Sigma), 100 ng/mL KITLG, 10 ng/mL IL3, and 0.5 U/mL EPO. CS2 differentiation media is same as CS2 expansion media, except 3 U/mL EPO.
Globin mRNA was detected using quantitative real time PCR (QPCR). Total RNA was isolated using RNeasy Micro Kit (Qiagen) with on-column DNase digestion, converted into cDNA using the High Capacity RNA-to-cDNA Kit (Life Technologies), diluted 5-fold with water, and 1 μL used as a template for QPCR. The percent of each β-like globin transcript was determined using the absolute standard curve method. Briefly, DNA corresponding to the full length transcript for each globin isoform was cloned into […] plasmid (GenScript, Piscataway NJ). Each plasmid was validated against each QPCR probe to ensure specificity. Plasmids were pooled at equal molar concentration and a dilution series spanning 8-logs was utilized as the standard curve. Throughout this work, ‘HBG mRNA (%)’ and ‘percent HBG mRNA’ refers to the abundance of HBG mRNA expressed relative to the sum of the abundances of all β-like globin transcripts, i.e. [HBG/(HBB+HBD+HBG+HBE)]*100. In cases where the transcript of interest was compared against the housekeeping gene ACTB, the comparative Ct ([…]) method was utilized. Probes used for QPCR: HBB (Hs00747223_g1), HBD (Hs00426283_m1), HBG (Hs00361131_g1, detects both HBG1 and HBG2), HBE (Hs00362215_g1), GATA1 (Hs01085823_m1), GATA2 (Hs00231119_m1), KLF1 (Hs00610592_m1), MYB (Hs00920556_m1), SOX6 (Hs00264525_m1), BCL11A (Hs01093197_m1), and ACTB (Hs99999903_m1).
To evaluate the ability of ACY-957 to activate HBG, we utilized two distinct 2-phase culture systems, referred to as CS1 [24] and CS2 [21], to derive erythroid progenitors and erythroblasts from CD34+ human bone marrow cells (BM cells). […]

[2] = set-up: method as in earlier work; conditions: monkey; cited from earlier work
histone acetylation = test: Histone acetylation by western blot in primary human erythroblasts; assay type: cell-based; conditions: 1 μM or 5 μM, 24 hours
From the text: The EpiQuick Total Histone Extraction kit (Epigentek) was used to isolate histones. Histone lysates were size separated on Bolt 4–12% Bis-Tris gradient gels (Life Technologies), transferred to polyvinylidene difluoride membrane and detected using standard western blotting technique. GATA2 protein was detected by lysing cells in RIPA denaturing buffer supplemented with protease inhibitors followed by detection using a Wes capillary electrophoresis system (Protein Simple) or western blotting on nitrocellulose membrane. Antibodies used for western blotting: Anti-GATA2 [clone EPR2822(2)] (Abcam), anti-ACTB [clone 1E35] (Cell Signaling Technology), anti-H3K9/14 [catalog number 17–615] (EMD Millipore), anti-H3K56ac [clone EPR996Y] (Abcam), anti-H3K79 [catalog number 07–750] (EMD Millipore), anti-H2BK5 [catalog number 2574] (Cell Signaling Technology), anti-H3K9me3 [catalog number 07–442] (EMD Millipore), and anti-total-H4 [clone 62-141-13] (EMD Millipore).
Next, ACY-957’s ability to inhibit HDAC activity in primary hematopoietic progenitors derived from human bone marrow was investigated. […]

Compound: Nc1ccc(-c2cccs2)cc1NC(=O)c1ccc2nc(N3CCNCC3)ccc2c1 [ACY-957]
- pharmacokinetic properties [1]: favorable
- HBG mRNA (%) (HBG mRNA; CS1, day 5, 1 μM): 35%
- each β-like globin mRNA relative to ACTB (HBG mRNA; CS1 and CS2, 1 μM): significantly increased levels of HBE and HBG mRNA and decreased levels of HBD and HBB mRNA
- increase of HBG level over vehicle treated controls (HBG mRNA; CS1 and CS2, day 5, 1 μM): approximately 3.5 fold
- HBG mRNA (%) (HBG mRNA; CS2, day 5, 1 μM): 24%
- pharmacokinetic properties [2]: favorable
- acetylation of H3K9/14ac, H3K56, H3K79ac and H2BK5ac (histone acetylation): dose-dependent accumulation of acetylation
- histone H3 lysine 9 tri-methylation (H3K9me3) (histone acetylation): not affected
